For one data set, the system named is GIST882 cell line. Put plainly: Combination dose-matrix cell viability (CellTiter Glo, Loewe model). The conditions noted are these: NEG085-MCC-DM1 in combination with the compound, 120 h. Format: cell-based. The method, then: (§1) Relative inhibition of cell viability was calculated for every dose combination. […] Excess inhibition compared to additivity can be plotted as a full dose-matrix chart to visualize the drug concentrations where synergies occur. Synergistic combinations produced regions of excess inhibition within the dose-matrix. […] “Additivity” was found when the combination generated the same inhibition of cell viability response when compared to the response with the single agent by itself “Synergy” was indicated when the inhibition of cell viability was greater than the response of the single agent compared with itself. Alternatively, “Additivity” was indicated with a Loewe score of less than 5, and “Synergy” was indicated by a Loewe score of greater than 5.
(§2) Cell viability was determined by measuring cellular ATP content using the CellTiter Glo luminescence assay (Promega, Madison Wis.). One day before drug addition, 250-500 GIST cells from 2 different cell lines were plated into 384-well plates (Greiner, Monroe, N.C.) in 20 μl growth media.

The test system of the next data set is GIST430 cell line. The description is as above. Format: cell-based. The conditions noted are these: NEG085-MCC-DM1 in combination with the compound, 120 h. The method, then: as §1, §2
Data set [1] deals with HAMLX5343 systemic primary AML xenograft.
For data set [2], the target named is T1, Mouse cKIT ECD, C-terminal 6x His (Sino Biological Inc, catalog number 50530-M08H) (mouse, UniProt P05532 25-527).
T1 construct: extracellular domain; Bought protein
T1 sequence (looked up): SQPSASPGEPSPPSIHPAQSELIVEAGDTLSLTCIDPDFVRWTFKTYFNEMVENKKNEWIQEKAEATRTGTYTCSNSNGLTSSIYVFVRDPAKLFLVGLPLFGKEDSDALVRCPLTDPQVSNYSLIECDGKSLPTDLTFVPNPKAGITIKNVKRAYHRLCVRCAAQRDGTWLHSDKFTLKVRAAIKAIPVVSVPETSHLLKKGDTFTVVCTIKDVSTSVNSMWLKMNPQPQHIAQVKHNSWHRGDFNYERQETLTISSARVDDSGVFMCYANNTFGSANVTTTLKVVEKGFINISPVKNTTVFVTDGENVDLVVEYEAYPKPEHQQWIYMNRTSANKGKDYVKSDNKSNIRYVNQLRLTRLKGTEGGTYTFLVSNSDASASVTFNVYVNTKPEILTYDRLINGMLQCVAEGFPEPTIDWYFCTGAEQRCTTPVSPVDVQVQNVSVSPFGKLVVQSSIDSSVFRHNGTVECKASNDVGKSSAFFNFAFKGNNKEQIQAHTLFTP
As to the kind of experiment: SPR (Biacore 2000), antibody captured on anti-human Fc.

The target in data set [3] is T2, Rat cKIT D1-5 (residues 25-526, C-terminal mFc) (rat).
T2 construct: The entry includes the linker and mouse Fc tag; also called rat cKIT-mFc
T2 chain: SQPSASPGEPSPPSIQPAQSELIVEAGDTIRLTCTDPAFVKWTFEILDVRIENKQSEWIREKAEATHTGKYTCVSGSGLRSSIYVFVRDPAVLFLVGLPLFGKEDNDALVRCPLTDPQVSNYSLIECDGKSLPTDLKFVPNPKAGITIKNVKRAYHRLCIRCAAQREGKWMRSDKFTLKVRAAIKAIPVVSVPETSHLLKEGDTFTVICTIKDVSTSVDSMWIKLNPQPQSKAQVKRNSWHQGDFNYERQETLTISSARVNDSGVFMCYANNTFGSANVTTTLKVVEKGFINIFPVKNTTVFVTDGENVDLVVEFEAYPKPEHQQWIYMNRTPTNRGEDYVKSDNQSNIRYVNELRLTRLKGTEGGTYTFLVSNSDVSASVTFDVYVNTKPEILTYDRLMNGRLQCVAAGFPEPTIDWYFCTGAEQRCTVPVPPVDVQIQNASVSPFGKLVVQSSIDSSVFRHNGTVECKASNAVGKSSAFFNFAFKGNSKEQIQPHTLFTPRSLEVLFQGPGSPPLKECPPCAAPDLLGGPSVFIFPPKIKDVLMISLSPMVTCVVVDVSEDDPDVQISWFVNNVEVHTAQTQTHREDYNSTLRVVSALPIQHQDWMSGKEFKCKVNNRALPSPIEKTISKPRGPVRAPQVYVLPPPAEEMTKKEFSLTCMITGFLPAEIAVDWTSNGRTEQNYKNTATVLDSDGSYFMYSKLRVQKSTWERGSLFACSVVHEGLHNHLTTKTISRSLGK
The data set is described as above.

Data set [4] deals with T3, Human cKIT D1-5 (human cKIT tr. variant 2, residues 26-520, C-terminal His tag) (human, UniProt P10721 26-524).
T3 construct: also called human cKIT ECD; Human c-Kit ECD
As to the kind of experiment: SPR (Biacore 2000), antibody captured on anti-human Fc, cKIT ECD as analyte, 25 C, 1:1 fit.

For data set [5], the target named is T4, Cynomolgus monkey cKIT D1-5 (residues 25-520, C-terminal His tag) (cynomolgus monkey, UniProt P10721 25-520 (human entry)).
T4 construct: the signal peptide was not part of the protein in the assay; also called cyno cKIT; cynomolgus monkey ECD
T4 chain: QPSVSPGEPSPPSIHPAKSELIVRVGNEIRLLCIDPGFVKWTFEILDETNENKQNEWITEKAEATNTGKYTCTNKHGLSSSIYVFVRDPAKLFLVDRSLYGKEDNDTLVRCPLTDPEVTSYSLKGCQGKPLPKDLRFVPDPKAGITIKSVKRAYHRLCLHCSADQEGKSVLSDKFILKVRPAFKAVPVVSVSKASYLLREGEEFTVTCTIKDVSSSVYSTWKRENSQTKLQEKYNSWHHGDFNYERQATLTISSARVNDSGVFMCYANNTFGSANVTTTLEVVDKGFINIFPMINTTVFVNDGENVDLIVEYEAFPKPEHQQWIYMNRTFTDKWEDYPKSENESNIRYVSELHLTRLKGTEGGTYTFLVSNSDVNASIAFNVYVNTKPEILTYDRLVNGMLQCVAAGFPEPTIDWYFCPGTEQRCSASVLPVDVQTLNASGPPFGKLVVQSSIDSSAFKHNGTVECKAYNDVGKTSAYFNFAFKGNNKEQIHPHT
The data set is described as above.

T3 sequence (P10721 other isoform, or with tags, fused parts or gaps mutant limits assumed): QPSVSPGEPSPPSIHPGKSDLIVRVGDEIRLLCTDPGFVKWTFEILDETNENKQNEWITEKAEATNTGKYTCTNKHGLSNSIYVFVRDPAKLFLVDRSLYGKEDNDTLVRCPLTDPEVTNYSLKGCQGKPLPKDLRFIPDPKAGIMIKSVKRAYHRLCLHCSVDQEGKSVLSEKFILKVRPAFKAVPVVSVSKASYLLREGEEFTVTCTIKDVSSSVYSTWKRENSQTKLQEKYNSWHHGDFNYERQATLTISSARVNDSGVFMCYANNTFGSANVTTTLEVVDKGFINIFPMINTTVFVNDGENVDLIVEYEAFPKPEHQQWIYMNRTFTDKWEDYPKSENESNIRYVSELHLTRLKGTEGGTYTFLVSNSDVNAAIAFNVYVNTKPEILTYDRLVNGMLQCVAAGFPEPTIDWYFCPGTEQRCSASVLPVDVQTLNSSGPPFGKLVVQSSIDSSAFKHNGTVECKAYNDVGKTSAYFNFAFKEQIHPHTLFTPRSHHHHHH

Take `COc1ccc(-c2ccc3c(N4CCOC[C@@H]4C)nc(N4CCOC[C@@H]4C)nc3n2)cc1CO` [NVP-CCG168]: the GIST882 cell line entry in the data set with GIST882 cell line was “Additivity (“Additivity” was indicated with a Loewe score of less than 5)”. The GIST430 cell line result in the data set with GIST430 cell line is given as “Additivity (“Additivity” was indicated with a Loewe score of less than 5)”.
For the molecule `CN[C@@H](C)C(=O)N[C@H](C(=O)N1CCC[C@H]1c1nc(C(=O)c2ccc(F)cc2)cs1)C1CCCCC1` [NVP-LCL161], in the data set on GIST882 cell line, the GIST882 cell line entry is reported as “Synergy (“Synergy” was indicated by a Loewe score of greater than 5)”. The GIST430 cell line result in the data set with GIST430 cell line is “Synergy (“Synergy” was indicated by a Loewe score of greater than 5)”.
Take `C[C@@H]1CN(c2ccc(Nc3ncc4ccn(-c5cc(F)c(CN6CCOCC6)c(F)c5)c4n3)cn2)C[C@H](C)N1` [NVP-BVB808]: the GIST882 cell line entry with GIST882 cell line was “Additivity (“Additivity” was indicated with a Loewe score of less than 5)”. For the same molecule, the GIST430 cell line result with GIST430 cell line is “Additivity (“Additivity” was indicated with a Loewe score of less than 5)”.
On to `Nc1ccn([C@@H]2O[C@H](CO)[C@@H](O)[C@@H]2O)c(=O)n1` [ARA-C (cytarabine), cytarabine, reference compound], for which, in data set [1] (Day 71, 50 mg/kg Daily × 6 days, intraperitoneally), the “Mean change of body weight (from day 67, % ± SEM)” value worked out at 2.3 ± 2.3%. Further, the “anti-tumor activity (leukemic burden)” value in data set [1] (NSG mice, intraperitoneally daily for 6 days) is recorded as “efficacious in three of the animals”. Further, the bodyweight loss in data set [1] (intraperitoneally daily for 6 days, in three of six animals) is greater than 20%. Also, in data set [1] (mouse, in vivo), the “Mean change of tumor volume (% CD45 positive PBMC's ± SEM)” value was −6.6 ± 2.1 % CD45 positive PBMC's and the “Regression (%)” value is reported as −52.5%.
Take `Cc1nc(NC(=O)N2CCC[C@H]2C(N)=O)sc1-c1ccnc(C(C)(C)C(F)(F)F)c1` [NVP-BYL719]: the GIST882 cell line result with GIST882 cell line was “Synergy (“Synergy” was indicated by a Loewe score of greater than 5)”. Moreover, the GIST430 cell line result with GIST430 cell line is “Synergy (“Synergy” was indicated by a Loewe score of greater than 5)”.
Turning to `Nc1cc(C(F)(F)F)c(-c2cc(N3CCOCC3)nc(N3CCOCC3)n2)cn1` [NVP-BKM120, 4-(trifluoromethyl)-5-(2,6-dimorpholinopyrimidin-4-yl)pyridin-2-amine], the GIST882 cell line entry in the data set on GIST882 cell line was “Synergy (“Synergy” was indicated by a Loewe score of greater than 5)”. Also, the GIST430 cell line entry with GIST430 cell line was “Additivity (“Additivity” was indicated with a Loewe score of less than 5)”.
The like results for `CO[C@H]1C[C@@H]2CC[C@@H](C)[C@@](O)(O2)C(=O)C(=O)N2CCCC[C@H]2C(=O)O[C@H]([C@H](C)C[C@@H]2CC[C@@H](OCCO)[C@H](OC)C2)CC(=O)[C@H](C)/C=C(\C)[C@@H](O)[C@@H](OC)C(=O)[C@H](C)C[C@H](C)/C=C/C=C/C=C/1C` [Afinitor ®, Everolimus] were, in that order, “Synergy (“Synergy” was indicated by a Loewe score of greater than 5)” and “Synergy (“Synergy” was indicated by a Loewe score of greater than 5)”.
For the molecule `Cn1c(=O)n(-c2ccc(C(C)(C)C#N)cc2)c2c3cc(-c4cnc5ccccc5c4)ccc3ncc21` [NVP-BEZ235, 2-Methyl-2-[4-[3-methyl-2-oxo-8-(quinolin-3-yl)-2,3-dihydroimidazo[4,5-c]quinolin-1-yl]phenyl]propionitrile], the GIST882 cell line result in the data set with GIST882 cell line was “Synergy (“Synergy” was indicated by a Loewe score of greater than 5)”. For the same molecule, the GIST430 cell line entry with GIST430 cell line is recorded as “Additivity (“Additivity” was indicated with a Loewe score of less than 5)”.
The like results for `CCN(CC)CCNC(=O)c1c(C)[nH]c(/C=C2\C(=O)Nc3ccc(F)cc32)c1C` [Sutent ®, Sunitinib] were, in that order, “Additivity (“Additivity” was indicated with a Loewe score of less than 5)” and “Additivity (“Additivity” was indicated with a Loewe score of less than 5)”.
Take `COc1cccc(-c2cc(F)ccc2[C@H]2Cc3nc(N)nc(C)c3C(=O)N2)n1` [NVP-HSP990]: in the data set with GIST882 cell line, the GIST882 cell line result is “Additivity (“Additivity” was indicated with a Loewe score of less than 5)”. The GIST430 cell line entry with GIST430 cell line was “Additivity (“Additivity” was indicated with a Loewe score of less than 5)”.

B1: NEG087 (antibody, human IgG1, kappa, V domains shown)
VH: EVQLVESGGGLVQPGGSLRLSCAASGFTFSDYYMAWVRQAPGKGLEWVASINQNTGSTYYLDSVRGRFTISRDNAKNSLYLQMNSLRAEDTAVYYCARGDYYGTTYWYFDVWGQGTTVTVSS
VL: DIQMTQSPSSLSASVGDRVTITCRASQSISSYLNWYQQKPGKAPKLLIYYTSRLQSGVPSRFSGSGSGTDFTLTISSLQPEDFATYYCQQGRRLWSFGGGTKVEIKR
notes: Humanized, optimized variant of 9P3; human IgG1 kappa
With B1, the binding result in data set [2] and in data set [3] was “no binding (tested: 3.125-50 nM of cKIT ECD injected)” each time. Besides, the Kd in data set [4] is 1.13 nM; in data set [5], 1.39 nM.

B2: NEG027 (antibody, human IgG1, kappa, V domains shown)
VH: B1 VH
VL: EIVMTQSPATLSLSPGERATLSCRASQDISNYLNWYQQKPGQAPRLLIYYTSRLQSGIPARFSGSGSGTDYTLTISSLEPEDFAVYYCQQGKKLWSFGGGTKVEIKR
notes: as for B1
Turning to B2, the binding result in data set [2] and in data set [3] was “no binding (tested: 3.125-50 nM of cKIT ECD injected)” throughout. In data set [4], the Kd is 1.34 nM.
